The data set relates to superoxide anion. The data set is described as follows: Superoxide anion formation by BAECs (lucigenin chemiluminescence). In kind it is cell-based, bovine. To be noted: CYP2J2-transfected vs GFP-transfected cells. How it is done:
The rate of superoxide anion generation by BAECs was determined as follows: Forty-eight hours after transfection with either pcDNA3.1/GFP or pcDNA3.1/CYP2J2, BAECs were detached by treatment with trypsin and resuspended in culture medium containing 10% FBS. Special care was taken to avoid unnecessary manipulation of the BAECs. The rate of superoxide anion formation in vitro was determined by chemiluminescence of lucigenin (bis-N-methylacridinium nitrate) as described by Yang et al., 274 Am. J. Physiol. H1955-H1961 (1998)). Briefly, culture medium (10% of FBS added) containing 0.25 mmol/L lucigenin (pH 7.4) was prepared as an assay solution. One milliliter of this assay solution was placed in a plastic scintillation vial., and then 2×10^6 BAECs were gently placed in the assay solution. The chemiluminescence of lucigenin was then detected with the use of a scintillation counter (LS 6500, Beckman Instruments, Fullerton, Calif.) in out-of-coincidence mode with a single active photomultiplier tube every 5 min. The chemical specificity of this light-yielding reaction for superoxide anion has been reported previously (Yang et al., 274 Am. J. Physiol. H1955-H1961 (1998)).

For “CYP2J2: CYP2J2 cDNA (1.9 kb) subcloned into plasmid pcDNA3.1, transfected into endothelial cells”, the “rate of superoxide anion formation” value is reported as “significantly lower”.

The values above are taken from patent publication US6916843B1, “Anti-inflammatory actions of cytochrome P450 expoxygenase-derived eicosanoids” (The United States of America as represented by the …, priority 1999, dated 2005).
